Experimental data taken from patent US20070072815A1, “Methods and kits to increase the efficiency of oligonucleotide-directed nucleic acid sequence alteration” (priority 2004, published 2007).
Entries after “also recorded” stand apart in the source; their conditions may differ.

Legend:
[1] = tested on: α-galactosidase A (GLA) activity in Fabry's cell line DMN-1; test: GLA activity in Fabry's cells after ODSA; format: cell-based, human
Description: Cell line DMN-1, a human fibroblast cell line derived from a human patient with Fabry's disease, is obtained from the National Institutes of Health (NIH). These cells are used to measure the efficiency of correction of a mutant allele of α-galactosidase A (GLA) using methods of the present invention. The specific disease-causing mutation in the Fabry's cell line used herein is A143P, caused by a G→C mutation in the gene. See Branton et al., Medicine (Baltimore) (2002) 81(2): 122-38.
All four oligonucleotides are used to effect ODSA substantially as described in Example 1, with the exception that cells are transfected with oligonucleotides, rather than electroporated. Oligos are added at 5 μg, 10 μg or 30 μg per reaction. After ODSA is performed, cells are cultured and assayed for GLA activity according to the method of Brady, as described in Medin et al., Proc. Natl. Acad. Sci. (USA) (1996) 93:7917-22, the disclosure of which is incorporated herein by reference in its entirety. The GLA activity is used as a measure of gene correction by comparing the activities in treated versus untreated cultures. The correction efficiency is subsequently confirmed by sequencing of the locus of mutation in a number of treated cells.
[…] Unlike the experiments involving correction of eGFP in DLD-1-1 cells described in Example 1, however, certain of the agents (VPA, caffeine, TSA) in the experiments in this example are not added before transfection, but are instead added only after transfection, during the recovery period.
The means of introducing oligonucleotide into the target cells also differs from previous examples, with transfection in the presence of the transfection enhancing agent FuGENE™ 6 (FG) (Roche Diagnostics Corp., Indianapolis, Ind., USA) being used rather than electroporation. Each transfection reaction includes 100 μl of target cells and 12 μl of FG unless otherwise indicated, despite the fact that FG is not explicitly listed for each datapoint in the relevant figures. Otherwise the procedures used in the DLD-1-1 experiments and the Fabry's experiments are similar.
The results of a further series of experiments are shown at FIG. 15D, where the data are presented as GLA activity as nanomolar (nM) concentration of the product of the GLA assay generated per hour per unit protein concentration (as are the data in FIGS. D and E).

[2] = tested on: mutant eGFP gene in DLD-1-1 cells; test: eGFP gene correction (oligonucleotide-directed sequence alteration) in DLD-1-1 cells, FACS readout; format: cell-based
Procedure: Cell line and culture conditions: DLD-1 cells are obtained from ATCC (American Type Cell Culture, Manassas, Va.). DLD-1 integrated clone 1 (DLD-1-1) is obtained by integration of the vector pEGFP-N3 containing a single point mutation (TAG) in the eGFP gene, as described in copending U.S. patent application Ser. No. 10/986,418, filed Nov. 10, 2004 (“Mammalian Cell Lines for Detecting, Monitoring, and Optimizing Oligonucleotide-Mediated Chromosomal Sequence Alteration”). Cells are grown in RPMI 1640 medium with 2 mM glutamine, 4.5 g/L glucose, 10 mM HEPES, 1 mM sodium pyruvate and supplemented with 10% FBS. Cells are maintained at 5% CO2, 37° C. and under selection in 200 μg/ml G418 (Gibco, Invitrogen Co., Carlsbad, Calif.).
eGFP gene correction: Cells grown in complete medium supplemented with 10% FBS are trypsinized and harvested by centrifugation. The cell pellet is resuspended in serum-free medium at a density of 1×10^6 cells/100 μl and transferred to a 4 mm gap cuvette (Fisher Scientific, Pittsburgh, Pa.). The oligonucleotide is then added at a concentration of 4 μM and the cells are electroporated (LV, 250V, 13 msec, 2 pulses, 1 second interval) using a BTX ECM830 apparatus (BTX, Holliston, Mass.). The cells are then transferred to a 60 mm dish containing fresh medium supplemented with 10% FBS and incubated for 48 hrs at 37° C. before harvesting for FACS analysis.
The percentage of converted cells in a whole population is then calculated by CellQuest™ (Becton Dickinson) and GFP/PI programs. The correction efficiency is determined by dividing the number of eGFP positive cells by the number of cells analyzed in each experiment (usually 50,000 cells). Each clone is tested three times to determine the standard deviation of the correction efficiency, with standard deviation calculated using Microsoft Excel.
The experimental strategy involves the introduction of oligonucleotides into DLD-1-clone 1 cells by electroporation followed by phenotypic readout of the corrected eGFP gene, 48 hours later. The correcting oligonucleotide (EGFP3S/72NT) is 72 bases in length (72-mer), complementary to the non-transcribed strand of the mutant eGFP gene but designed to create a single mismatch in the third base of codon 67 (see FIG. 1A). It directs conversion of a TAG→TAC codon which enables phenotypic expression of eGFP, which can be detected by FACS. FIG. 1B outlines the sequence of the target gene, the 72-mer and a nonspecific 74-mer used as a control.
Oligonucleotide-Directed Sequence Alteration: The resulting synchronized populations of cells, and asynchronous controls, are grown in complete medium supplemented with 10% FBS and trypsinzed and harvested by centrifugation at 1500 rpm for 5 minutes. The cell pellet is resuspended in fresh serum-free medium at a density of 2×10^6 cells/100 μl. The entire cell suspension is mixed with 20 μg of EGFP/72NT and transferred into a 4 mm gap cuvette (Fisher Scientific, Pittsburgh, Pa., USA) followed by electroporation with two 250V pulses, each 13 ms in duration, with one second between pulses, unipolar.
Cells are incubated at room temperature for 30 min. […] Frequency of converted cells are calculated by CellQuest™ and GFP/PI programs.
Double Thymidine Block: Cells are synchronized in G1 or at the G1/S border by a double thymidine block. Twenty-four hours prior to the addition of any agent (HU, etc.), cells are plated at a density of 0.5×10^6 cells per 100 mm dish, followed by incubation in 2 mM thymidine (Sigma) for 16 hrs, washed and released in fresh medium for 10 hrs, then incubated in 2 mM thymidine for an additional 15 hrs.
FACS is then used to analyze 50,000 cells from each population to determine the percentage of cells expressing functional eGFP, as described in Example 1.

[3] = tested on: homologous recombination (HR); conditions: via inhibition of ATM kinase / p53 ser-15 phosphorylation; cited from earlier work

With `Cn1c(=O)c2c(ncn2C)n(C)c1=O` [caffeine] the “effect on GLA activity” value ([1]; synchronized cells treated with 0.3 mM HU, 4 mM caffeine during recovery period) was “modest effect on GLA activity”, the “effect on ddC-enhanced GLA activity” value ([1]; synchronized cells, 500 μM ddC, 4 mM caffeine or 100 ng/ml TSA during recovery period) was “eliminate the ability of 500 μM ddC to enhance GLA activity” and the “effect on correction efficiency, recovery phase” value ([2]; 4 mM caffeine after electroporation, up to 48 hrs) was “dramatically increases correction efficiency; also recorded: stimulates correction; also recorded: the greater the enhancement of correction efficiency”. For the same molecule, the “effect on MMS-enhanced correction” value ([2]; 4 mM caffeine in addition to 0.2 μM MMS) was “completely suppressing the enhancement otherwise caused by MMS”, the “effect on correction efficiency” value ([2]; 4 mM caffeine pre-treatment, with or without 0.2 μM MMS) was “lower than the control experiment; also recorded: ineffective at increasing the efficiency of gene repair” and the “effect on correction efficiency, pretreatment” value ([2]; 4 mM caffeine prior to electroporation) was “decreases correction efficiency; also recorded: inhibits oligonucleotide-directed gene correction; also recorded: reduction in basal repair levels”. For the same molecule, the correction levels ([2]; caffeine added to ddC-treated cells, pretreatment (FIG. 20)) was 0.6%, the “effect on ddC-stimulated gene repair” value ([2]; inhibitor added with ddC before electroporation (FIG. 20)) was “blocks the stimulation in gene repair caused by ddC treatment; also recorded: knocks down correction induced by ddC” and the “reduction of the level of HR” value [3] was 60-90%.
